Entries after “also recorded” stand apart in the source; their conditions may differ. Where two headings read alike, the source gives them in different places. Marks after values point to notes of the source that are not given here.
Tests used:
[1] = Cleavage in cytosolic incubations; conditions: data not shown
[2] = Fenthion, fenoxon and fenthion sulfoxide metabolism in gill microsomes; conditions: gills, substrate 100 μM, bdl: <0.3
[3] = olfactory tissues
[4] = Fenthion, fenoxon and fenthion sulfoxide metabolism in liver microsomes; conditions: for Vmax, Fenoxon formation / Vmax, MMTP (NADPH-dependent) formation / Vmax, MMTP (NADPH-independent) formation / Vmax, R-fenthion sulfoxide formation / Vmax, S-fenthion sulfoxide formation / Vmax, R-fenoxon sulfoxide formation / Vmax, S-fenoxon sulfoxide formation: liver microsomes incubated with fenthion; for R-fenoxon sulfoxide formation / S-fenoxon sulfoxide formation: liver, substrate 100 μM
FMO3 = conditions: ref Furnes and Schlenk, 2003, 2004; cited from earlier work
AChE = conditions: read-out: IC50 (AChE inhibition); ref Gadepalli et al., 2007; cited from earlier work
[5] = TEPP inhibition of MMTP formation from fenthion, olfactory tissue microsomes; format: biochemical, rainbow trout (Oncorhynchus mykiss); conditions: freshwater-acclimated
[6] = TEPP inhibition of MMTP formation from fenthion, gill microsomes; format: biochemical, rainbow trout (Oncorhynchus mykiss); conditions: Gills, freshwater-acclimated
[7] = TEPP inhibition of MMTP formation from fenthion, liver microsomes; format: biochemical, rainbow trout (Oncorhynchus mykiss); conditions: freshwater-acclimated
recombinant human FMO1 = molecular target: T1, recombinant human FMO1 (Homo sapiens, UniProt Q01740); experiment: Biotransformation by recombinant human FMO1; conditions: fenthion sulfoxide as substrate
T1 sequence (Q01740 1-532): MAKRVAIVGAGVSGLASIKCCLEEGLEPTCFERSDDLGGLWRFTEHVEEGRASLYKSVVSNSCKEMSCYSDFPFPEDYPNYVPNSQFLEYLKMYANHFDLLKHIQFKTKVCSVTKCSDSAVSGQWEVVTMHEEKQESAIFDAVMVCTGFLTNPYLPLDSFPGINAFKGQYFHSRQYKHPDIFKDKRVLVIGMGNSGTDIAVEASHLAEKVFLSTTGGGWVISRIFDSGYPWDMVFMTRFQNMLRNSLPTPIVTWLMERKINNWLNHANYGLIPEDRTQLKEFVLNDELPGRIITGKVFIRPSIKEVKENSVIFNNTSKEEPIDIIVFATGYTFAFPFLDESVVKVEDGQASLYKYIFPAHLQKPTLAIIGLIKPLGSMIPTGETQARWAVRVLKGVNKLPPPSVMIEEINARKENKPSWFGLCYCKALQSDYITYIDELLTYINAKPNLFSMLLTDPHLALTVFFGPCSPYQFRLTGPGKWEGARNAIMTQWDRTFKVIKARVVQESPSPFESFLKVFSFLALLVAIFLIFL

CYP = conditions: for reduction of fenoxon formation: liver microsomes, ketoconazole 500 μM; for Fenoxon formation from fenthion / MMTP (NADPH-dependent) formation from fenthion / MMTP (NADPH-independent) formation from fenthion / R-Fenthion sulfoxide formation from fenthion / S-Fenthion sulfoxide formation from fenthion: liver, NADPH+ ketoconazole (500 μM)+ fenthion
[8] = test system: testosterone hydroxylase (CYP3A27-related); experiment: [14C]Testosterone hydroxylase activity in liver microsomes; conditions: Ketoconazole 500 μM; below detection; data not shown
[9] = Table 1, freshwater-acclimated, substrate 100 μM, bdl: <0.3
[10] = Table 1, freshwater-acclimated, bdl: <0.3

COP(=S)(OC)Oc1ccc(SC)c(C)c1 [Fenthion, O,O-dimethyl-O-(4-methylmlercapto)-3-methylphenylthio-phosphate]
NADPH-independent or dependent cleavage [1]: not observed | R-fenoxon sulfoxide formation ([2]; Table 1, freshwater-acclimated): bdl | S-fenoxon sulfoxide formation ([2]; Table 1, freshwater-acclimated): bdl | R-fenoxon sulfoxide formation ([2]; Table 4, Freshwater): bdl | S-fenoxon sulfoxide formation ([2]; Table 4, Freshwater): bdl | R-fenoxon sulfoxide formation ([2]; Table 4, Hypersaline): bdl | S-fenoxon sulfoxide formation ([2]; Table 4, Hypersaline): bdl | Fenoxon formation [3, 9]: bdl | R-fenoxon sulfoxide formation [3, 9]: bdl | R-fenthion sulfoxide formation [3, 9]: bdl | S-fenoxon sulfoxide formation [3, 9]: bdl | S-fenthion sulfoxide formation [3, 9]: bdl | sulfoxidation ([3]; HA fish, data not shown): not detected | Vmax, Fenoxon formation ([4]; Freshwater): 82.8±4.6 pmol/min/mg protein | Vmax, MMTP (NADPH-dependent) formation ([4]; Freshwater): 199.2±24.4 pmol/min/mg protein | Vmax, MMTP (NADPH-independent) formation ([4]; Freshwater): 53.7±4.8 pmol/min/mg protein | Vmax, R-fenthion sulfoxide formation ([4]; Freshwater): 78.6±5.2 pmol/min/mg protein | Vmax, S-fenthion sulfoxide formation ([4]; Freshwater): 173.4±9.6 pmol/min/mg protein | Vmax, R-fenoxon sulfoxide formation ([4]; Freshwater, bdl: <0.3): bdl | Vmax, S-fenoxon sulfoxide formation ([4]; Freshwater, bdl: <0.3): bdl | Vmax, Fenoxon formation ([4]; Hypersaline): 130.0±6.1 pmol/min/mg protein | Vmax, MMTP (NADPH-dependent) formation ([4]; Hypersaline): 35.1±1.9 pmol/min/mg protein | Vmax, MMTP (NADPH-independent) formation ([4]; Hypersaline): 59.8±10.5 pmol/min/mg protein | Vmax, R-fenoxon sulfoxide formation ([4]; Hypersaline): 7.7±0.6 pmol/min/mg protein | Vmax, R-fenthion sulfoxide formation ([4]; Hypersaline): 201.1±11.9 pmol/min/mg protein | Vmax, S-fenoxon sulfoxide formation ([4]; Hypersaline): 18.4±1.1 pmol/min/mg protein | Vmax, S-fenthion sulfoxide formation ([4]; Hypersaline): 355.7±9.4 pmol/min/mg protein | R-fenoxon sulfoxide formation [4, 10]: bdl | S-fenoxon sulfoxide formation [4, 10]: bdl | R-fenoxon sulfoxide formation ([4]; Table 3, Freshwater, bdl: <0.3): bdl | S-fenoxon sulfoxide formation ([4]; Table 3, Freshwater, bdl: <0.3): bdl | efficiency of R-sulfoxide formation relative to fenoxon ([4]; liver microsomes, HA fish): 2 fold | efficiency of S-sulfoxide formation relative to R-sulfoxide ([4]; liver microsomes, HA fish): approximately 3 fold | S-sulfoxide excess formed (FMO3): 75%

COP(=S)(OC)Oc1ccc([S@@+](C)[O-])c(C)c1 [R-fenthion sulfoxide]
IC50 (AChE): > 1000 µM | R-fenoxon sulfoxide formation ([2]; Table 1, freshwater-acclimated): 2.9±0.1 pmol/min/mg protein | R-fenoxon sulfoxide formation ([2]; Table 4, Freshwater): 2.9±0.1 pmol/min/mg protein | R-fenoxon sulfoxide formation [3, 9]: bdl | R-fenoxon sulfoxide formation [4, 10]: 5.2±1.1 pmol/min/mg protein | R-fenoxon sulfoxide formation ([4]; Table 3, Freshwater, bdl: <0.3): 5.2±1.1 pmol/min/mg protein | R-fenoxon sulfoxide formation ([4]; Table 3, Hypersaline): 9.2±0.3 pmol/min/mg protein

COP(=S)(OC)Oc1ccc([S+](C)[O-])c(C)c1 (centres unmarked) [S-fenthion sulfoxide]
S-fenoxon sulfoxide formation ([2]; Table 1, freshwater-acclimated): 2.3±0.2 pmol/min/mg protein | S-fenoxon sulfoxide formation ([2]; Table 4, Freshwater): 2.1±0.1 pmol/min/mg protein | S-fenoxon sulfoxide formation [3, 9]: bdl | S-fenoxon sulfoxide formation [4, 10]: 6.1±0.2 pmol/min/mg protein | S-fenoxon sulfoxide formation ([4]; Table 3, Freshwater, bdl: <0.3): 6.1±0.2 pmol/min/mg protein | S-fenoxon sulfoxide formation ([4]; Table 3, Hypersaline): 12.2±3.2 pmol/min/mg protein

CCOP(=O)(OCC)OP(=O)(OCC)OCC [TEPP, tetraethylpyrophosphate]
MMTP Formation from fenthion, NADPH-dependent ([5]; 100 μM TEPP): 254.3±18.1^a pmol/min/mg protein | MMTP Formation from fenthion, NADPH-dependent ([5]; 500 μM TEPP): 100.2±13.3^b pmol/min/mg protein | MMTP Formation from fenthion, NADPH-independent ([5]; 500 μM TEPP, bdl: <0.3): bdl^b | MMTP Formation from fenthion, NADPH-dependent ([5]; 1000 μM TEPP, bdl: <0.3): below detection; also recorded: bdl^c | MMTP Formation from fenthion, NADPH-independent ([5]; 1000 μM TEPP, bdl: <0.3): bdl^b | MMTP Formation from fenthion, NADPH-dependent ([6]; 100 μM TEPP): 105.3±8.9^a pmol/min/mg protein | MMTP Formation from fenthion, NADPH-dependent ([6]; 500 μM TEPP): 74.3±10.1^b pmol/min/mg protein | MMTP Formation from fenthion, NADPH-independent ([6]; 500 μM TEPP, bdl: <0.3): bdl^b | MMTP Formation from fenthion, NADPH-dependent ([6]; 1000 μM TEPP, bdl: <0.3): below detection; also recorded: bdl^c | MMTP Formation from fenthion, NADPH-independent ([6]; 1000 μM TEPP, bdl: <0.3): bdl^b | MMTP Formation from fenthion, NADPH-dependent ([7]; 100 μM TEPP): 138.4±10.3^a pmol/min/mg protein | MMTP Formation from fenthion, NADPH-dependent ([7]; 500 μM TEPP): 65.4±11.1^b pmol/min/mg protein | MMTP Formation from fenthion, NADPH-independent ([7]; 500 μM TEPP, bdl: <0.3): bdl^b | MMTP Formation from fenthion, NADPH-dependent ([7]; 1000 μM TEPP, bdl: <0.3): below detection; also recorded: bdl^c | MMTP Formation from fenthion, NADPH-independent ([7]; 1000 μM TEPP, bdl: <0.3): bdl^b

COP(=S)(OC)Oc1ccc([S+](C)[O-])c(C)c1 (centres unmarked) [fenthion sulfoxide]
Fenoxon sulfoxides production (recombinant human FMO1): not produced

CC(=O)N1CCN(c2ccc(OCC3COC(Cn4ccnc4)(c4ccc(Cl)cc4Cl)O3)cc2)CC1 (centres unmarked) [ketoconazole]
fenoxon sulfoxide formation with inhibitor (CYP; liver microsomes from HA fish, co-incubation): below detection | reduction of fenoxon formation (CYP; FA fish): 67% | reduction of fenoxon formation (CYP; HA fish): 60% | Fenoxon formation from fenthion (CYP; Freshwater): 6.9±1.3 pmol/min/mg protein | MMTP (NADPH-dependent) formation from fenthion (CYP; Freshwater): 121.2±15.3 pmol/min/mg protein | MMTP (NADPH-independent) formation from fenthion (CYP; Freshwater): 5.3±2.1 pmol/min/mg protein | R-Fenthion sulfoxide formation from fenthion (CYP; Freshwater): 16.7±1.7 pmol/min/mg protein | S-Fenthion sulfoxide formation from fenthion (CYP; Freshwater): 33.7±2.7 pmol/min/mg protein | Fenoxon formation from fenthion (CYP; Hypersaline): 16.8±2.4 pmol/min/mg protein | MMTP (NADPH-dependent) formation from fenthion (CYP; Hypersaline): 13.2±4.5 pmol/min/mg protein | MMTP (NADPH-independent) formation from fenthion (CYP; Hypersaline): 4.5±1.1 pmol/min/mg protein | R-Fenthion sulfoxide formation from fenthion (CYP; Hypersaline): 83.4±8.4 pmol/min/mg protein | S-Fenthion sulfoxide formation from fenthion (CYP; Hypersaline): 168.4±13.2 pmol/min/mg protein | testosterone hydroxylase activity with inhibitor [8]: < 0.2 pmol/min/mg protein

Reference: article PMC2858921 (Toxicology and applied pharmacology, 2008)
